Results published in PMC7451048 (Drug metabolism letters, 2019).

Key:
BCRP = molecular target: T1, BCRP (Homo sapiens, UniProt Q9UNQ0); experiment: Plasma membrane vesicle transport assay, BCRP vesicles; assay type: in vitro ADME; conditions: for Difference in BCRP vesicle uptake between ATP and AMP: 10 μM, 1 min (Fig. 9)
T1 sequence (Q9UNQ0 1-655): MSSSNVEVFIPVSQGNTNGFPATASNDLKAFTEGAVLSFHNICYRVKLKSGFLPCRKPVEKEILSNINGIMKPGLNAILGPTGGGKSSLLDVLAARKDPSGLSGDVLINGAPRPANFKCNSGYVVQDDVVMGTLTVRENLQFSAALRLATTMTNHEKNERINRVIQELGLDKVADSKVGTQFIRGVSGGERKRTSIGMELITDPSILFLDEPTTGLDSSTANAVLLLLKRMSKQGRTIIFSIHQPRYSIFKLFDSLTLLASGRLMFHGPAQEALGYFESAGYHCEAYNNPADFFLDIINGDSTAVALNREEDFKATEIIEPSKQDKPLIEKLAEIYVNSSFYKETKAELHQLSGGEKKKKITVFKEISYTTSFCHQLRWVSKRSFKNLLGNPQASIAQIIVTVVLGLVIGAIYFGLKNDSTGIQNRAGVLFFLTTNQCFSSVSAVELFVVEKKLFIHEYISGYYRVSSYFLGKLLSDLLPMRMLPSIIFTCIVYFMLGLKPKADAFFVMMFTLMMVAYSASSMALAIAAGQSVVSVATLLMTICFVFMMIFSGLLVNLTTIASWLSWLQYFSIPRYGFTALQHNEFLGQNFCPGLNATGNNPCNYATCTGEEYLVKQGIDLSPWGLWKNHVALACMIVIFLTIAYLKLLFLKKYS

OATP4A1 = molecular target: T2, OATP4A1 (Homo sapiens, UniProt Q96BD0); experiment: Cellular uptake assay, HEK/OATP4A1 vs HEK empty vector cells
T2 sequence (Q96BD0 1-722): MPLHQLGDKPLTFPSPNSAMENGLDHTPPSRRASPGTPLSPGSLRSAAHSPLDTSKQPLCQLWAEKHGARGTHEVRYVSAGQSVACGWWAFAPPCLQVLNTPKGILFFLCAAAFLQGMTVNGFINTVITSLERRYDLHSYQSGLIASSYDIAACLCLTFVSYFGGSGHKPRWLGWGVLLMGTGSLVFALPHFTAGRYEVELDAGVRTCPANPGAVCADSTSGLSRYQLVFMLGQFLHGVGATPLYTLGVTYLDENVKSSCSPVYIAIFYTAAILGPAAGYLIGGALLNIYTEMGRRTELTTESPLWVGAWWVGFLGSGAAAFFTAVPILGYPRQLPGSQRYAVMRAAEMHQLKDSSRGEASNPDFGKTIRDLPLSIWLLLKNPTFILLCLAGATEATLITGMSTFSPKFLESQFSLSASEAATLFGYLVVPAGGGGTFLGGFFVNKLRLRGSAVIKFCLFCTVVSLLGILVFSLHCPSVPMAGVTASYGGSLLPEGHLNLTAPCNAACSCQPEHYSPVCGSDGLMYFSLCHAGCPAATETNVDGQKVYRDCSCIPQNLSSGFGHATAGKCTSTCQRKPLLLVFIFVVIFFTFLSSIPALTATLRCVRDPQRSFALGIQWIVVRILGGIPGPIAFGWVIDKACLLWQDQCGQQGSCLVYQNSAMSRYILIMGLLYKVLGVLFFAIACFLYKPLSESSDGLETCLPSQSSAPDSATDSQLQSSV

MRP2 = MRP2 (Homo sapiens, UniProt Q92887); experiment: Plasma membrane vesicle transport assay, MRP2 vesicles; conditions: for Difference in MRP2 vesicle uptake between ATP and AMP: 10 μM, 1 min (Fig. 9)
OATP1B1 = molecular target: T3, OATP1B1 (Homo sapiens, UniProt Q9Y6L6)
T3 sequence (Q9Y6L6 1-691): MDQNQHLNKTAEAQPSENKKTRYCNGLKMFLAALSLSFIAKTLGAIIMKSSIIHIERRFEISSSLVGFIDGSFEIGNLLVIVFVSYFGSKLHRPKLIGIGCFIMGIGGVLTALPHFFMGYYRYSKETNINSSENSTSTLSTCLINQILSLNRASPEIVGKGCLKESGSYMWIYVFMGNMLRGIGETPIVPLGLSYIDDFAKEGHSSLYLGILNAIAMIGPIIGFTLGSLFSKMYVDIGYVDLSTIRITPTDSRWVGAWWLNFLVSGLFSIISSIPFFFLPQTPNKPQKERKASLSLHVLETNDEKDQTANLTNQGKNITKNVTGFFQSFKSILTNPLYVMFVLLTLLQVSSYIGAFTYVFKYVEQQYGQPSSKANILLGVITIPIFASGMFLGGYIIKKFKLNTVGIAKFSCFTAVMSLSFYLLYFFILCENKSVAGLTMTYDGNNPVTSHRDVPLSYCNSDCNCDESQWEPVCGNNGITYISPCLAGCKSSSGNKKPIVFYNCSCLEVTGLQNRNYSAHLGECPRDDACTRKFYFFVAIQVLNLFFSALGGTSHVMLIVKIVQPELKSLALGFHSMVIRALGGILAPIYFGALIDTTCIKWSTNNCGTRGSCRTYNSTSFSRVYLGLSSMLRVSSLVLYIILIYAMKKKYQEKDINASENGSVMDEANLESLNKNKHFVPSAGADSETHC

OATP2B1 = molecular target: T4, OATP2B1 (Homo sapiens, UniProt O94956)
T4 sequence (O94956 1-709): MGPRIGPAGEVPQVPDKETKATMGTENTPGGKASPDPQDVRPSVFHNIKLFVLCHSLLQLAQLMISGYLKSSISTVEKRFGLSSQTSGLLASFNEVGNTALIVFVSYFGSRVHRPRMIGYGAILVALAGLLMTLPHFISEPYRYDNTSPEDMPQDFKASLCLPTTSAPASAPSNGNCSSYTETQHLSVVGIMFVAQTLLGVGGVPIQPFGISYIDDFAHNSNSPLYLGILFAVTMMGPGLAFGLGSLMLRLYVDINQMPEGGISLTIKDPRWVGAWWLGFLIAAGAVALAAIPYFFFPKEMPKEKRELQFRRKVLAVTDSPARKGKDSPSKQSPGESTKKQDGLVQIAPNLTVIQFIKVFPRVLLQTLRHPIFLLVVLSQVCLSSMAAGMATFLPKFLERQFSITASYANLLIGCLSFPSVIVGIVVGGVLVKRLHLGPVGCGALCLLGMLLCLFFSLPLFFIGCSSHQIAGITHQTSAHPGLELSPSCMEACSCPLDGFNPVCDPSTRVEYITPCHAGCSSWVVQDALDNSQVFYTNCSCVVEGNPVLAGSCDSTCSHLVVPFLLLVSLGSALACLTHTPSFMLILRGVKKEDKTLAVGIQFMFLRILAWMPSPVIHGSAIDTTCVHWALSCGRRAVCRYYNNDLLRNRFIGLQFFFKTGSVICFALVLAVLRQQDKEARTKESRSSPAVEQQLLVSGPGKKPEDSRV

Chain of MRP2 (Q92887 whole entry): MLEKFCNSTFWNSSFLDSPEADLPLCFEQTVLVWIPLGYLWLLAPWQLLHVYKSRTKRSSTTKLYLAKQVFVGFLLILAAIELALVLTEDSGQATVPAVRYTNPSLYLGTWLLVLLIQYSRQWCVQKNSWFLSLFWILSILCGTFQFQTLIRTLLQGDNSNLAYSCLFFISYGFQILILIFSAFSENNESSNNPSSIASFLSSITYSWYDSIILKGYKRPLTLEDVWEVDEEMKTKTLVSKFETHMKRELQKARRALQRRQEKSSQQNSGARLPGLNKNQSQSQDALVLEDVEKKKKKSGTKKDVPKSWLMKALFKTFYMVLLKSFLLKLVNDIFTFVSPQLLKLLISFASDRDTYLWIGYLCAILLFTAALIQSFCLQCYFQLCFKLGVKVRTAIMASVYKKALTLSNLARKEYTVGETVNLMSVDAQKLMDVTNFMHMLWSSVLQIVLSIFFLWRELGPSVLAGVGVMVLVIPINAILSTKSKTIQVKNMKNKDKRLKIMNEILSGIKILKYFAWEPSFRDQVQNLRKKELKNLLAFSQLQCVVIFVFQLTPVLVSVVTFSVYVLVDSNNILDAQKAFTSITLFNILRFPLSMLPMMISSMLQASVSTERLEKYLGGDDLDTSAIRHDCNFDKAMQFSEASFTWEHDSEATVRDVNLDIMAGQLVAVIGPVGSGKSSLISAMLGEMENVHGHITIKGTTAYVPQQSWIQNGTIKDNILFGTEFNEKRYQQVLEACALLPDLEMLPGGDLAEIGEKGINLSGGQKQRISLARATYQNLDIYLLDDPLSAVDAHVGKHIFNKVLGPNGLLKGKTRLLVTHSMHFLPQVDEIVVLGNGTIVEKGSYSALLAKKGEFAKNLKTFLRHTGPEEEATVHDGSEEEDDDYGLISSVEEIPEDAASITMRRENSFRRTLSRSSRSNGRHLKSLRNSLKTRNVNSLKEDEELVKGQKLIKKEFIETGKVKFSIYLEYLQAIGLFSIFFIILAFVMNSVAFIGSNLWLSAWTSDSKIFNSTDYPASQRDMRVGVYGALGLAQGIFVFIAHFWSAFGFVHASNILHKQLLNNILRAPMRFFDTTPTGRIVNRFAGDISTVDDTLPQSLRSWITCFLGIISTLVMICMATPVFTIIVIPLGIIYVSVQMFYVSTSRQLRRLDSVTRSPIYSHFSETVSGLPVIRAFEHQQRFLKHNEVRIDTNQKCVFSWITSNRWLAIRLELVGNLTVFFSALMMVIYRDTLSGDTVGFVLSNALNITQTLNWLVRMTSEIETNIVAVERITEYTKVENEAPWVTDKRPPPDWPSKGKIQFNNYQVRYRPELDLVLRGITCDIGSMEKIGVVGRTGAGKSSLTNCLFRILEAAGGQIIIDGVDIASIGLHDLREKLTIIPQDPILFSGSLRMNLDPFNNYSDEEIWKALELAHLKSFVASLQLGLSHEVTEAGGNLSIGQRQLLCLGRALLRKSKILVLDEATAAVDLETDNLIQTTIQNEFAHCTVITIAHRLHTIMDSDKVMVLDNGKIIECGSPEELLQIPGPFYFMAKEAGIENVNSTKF

| Structure (SMILES) | Substrate of BCRP (conclusion) (BCRP) | Difference in BCRP vesicle uptake between ATP and AMP (BCRP) | Substrate of OATP4A1 (conclusion) (OATP4A1) | Substrate of MRP2 (conclusion) (MRP2) | Difference in MRP2 vesicle uptake between ATP and AMP (MRP2) | Substrate of OATP1B1 (conclusion) (OATP1B1) | Substrate of OATP2B1 (conclusion) (OATP2B1) |
| --- | --- | --- | --- | --- | --- | --- | --- |
| CC(NC(C)(C)C)C(O)c1cccc(Cl)c1 (stereo not drawn) [EB, Erythrohydrobupropion] | not substrates | No significant differences | not substrates | not substrates | No significant differences | not substrates | not substrates |
| C[C@H]1NC(C)(C)CO[C@]1(O)c1cccc(Cl)c1 [OHB, Hydroxybupropion] | not substrates | No significant differences | not substrates | not substrates | No significant differences | not substrates | not substrates |
| C[C@H](NC(C)(C)C)[C@@H](O)c1cccc(Cl)c1 [TB, Threohydrobupropion] | not substrates | No significant differences | not substrates | not substrates | No significant differences | not substrates | not substrates |
